In patent publication US20100167396A1, “Application of Anti-Apoptotic Gene Expression in Mammalian Cells for Perfusion Culture” (BAYER HEALTHCARE LLC, priority 2006, published 2010):

What was measured:
[1] = test system: blank vector and parental BHK-FVIII cell lines; test: Thapsigargin-induced caspase-3 activation, control cell lines; format: cell-based, hamster; details: 24 hours after 2 μM thapsigargin treatment
Experimental: (§1) Cells were seeded at a density of 5×10^6 cells/mL in shake flasks and cultured in an incubator maintained at 37° C. and 5% CO2. The culture was examined every 24 hours for viability, caspase-3 activation, Annexin-V binding assay, and nutrient measurements. Cell count was performed by trypan blue exclusion assay using a Cedex cell counting device (Innovatis, Bielefeld, Germany). Caspase-3 activation was detected using a Guava PCA system (Guava Technologies, Hayward, Calif.). Cells were washed with cold PBS, fixed with Cytofix/Cytoperm solution (BD Pharmingen, San Diego, Calif.), and then stained with PE-conjugated monoclonal active caspase-3 antibody (BD Pharmingen) before analyzing with the Guava system. For the Annexin-V binding assay, cells were collected and incubated using a Guava Nexin kit and analyzed on the Guava PCA system according to manufacturer's instructions (Guava Technologies). Levels of glutamine, glutamate, glucose, and lactate were measured by the YSI analyzer (YSI Life Sciences, Yellow Springs, Ohio).
(§2) The engineered cell lines Aven-E1B-19K #22 and E1B-19K #6, in addition to the blank vector and the parental cell lines were treated with thapsigargin in shake flask culture. […] To examine apoptosis induction, caspase-3 activation was evaluated 24 hours after thapsigargin treatment.

[2] = test system: E1B-19K #6 and Aven-E1B-19K #22 BHK-FVIII cell lines; test: Thapsigargin-induced caspase-3 activation, engineered cell lines; format: cell-based, hamster; details: 24 hours after 2 μM thapsigargin treatment, anti-apoptosis engineered cell lines
Experimental: as §1, §2

C/C=C(/C)C(=O)O[C@H]1C(C)=C2[C@H]([C@@H]1OC(=O)CCCCCCC)[C@@](C)(OC(C)=O)C[C@H](OC(=O)CCC)[C@@]1(O)[C@H]2OC(=O)[C@@]1(C)O [thapsigargin]
percentage of caspase-3 activated cells [1]: Approximately 20%
percentage of caspase-3 activated cells [2]: less than 5%
